Results from patent US20260207602A1, “EGFR INHIBITORS” (Blueprint Medicines Corporation, priority 2022, published 2026).

Key:
EGFR L858R = molecular target: T1, EGFR L858R (Homo sapiens, UniProt P00533, L858R); assay: Biochemical EGFR inhibition assay (Caliper mobility shift), EGFR L858R; settings: biochemical Caliper mobility shift assay, EGFR L858R enzyme; read-out: Enz EGFR L858R IC50
T1 construct: purchased SignalChem E10-122BG
Description: (§1) Inhibitory effects of the compounds of the disclosure were measured in biochemical assays that measure the phosphorylation activity of EGFR enzyme phosphorylates 2.5 micromolar 5-FAM-[…]-CONH2 peptide substrate (ProfilerPro Kinase Peptide Substrate 22, PerkinElmer, Part #760366) in the presence of adenosine-5′-triphosphate (ATP) and varying concentrations of the test compound in 100 mM 2-[4-(2-hydroxyethyl)piperazin-1-yl]ethanesulfonic acid (HEPES), pH 7.5, 10 mM MgCl2, 0.015% Brij-35, 1 mM dithiothreitol (DTT), 1.0% dimehylsulfoxide (DMSO). Assays were performed at 1.0 mM ATP or at ATP Km of the EGFR enzymes. Reactions proceeded until between 10% to 20% total peptides were phosphorylated at room temperature (25° C.) and were terminated with 35 mM 2,2′,2″,2′″-(ethane-1,2-diyldinitrilo)tetraacetic acid (EDTA). Product was detected using the Caliper mobility shift detection method where the phosphorylated peptide (product) and substrate were electrophoretically separated and measured. Percent activity was plotted against log concentration of compound and points to generate an apparent IC50. The following enzyme forms of • EGFR were examples that were used in these assays: • EGFR WT (SignalChem, E10-112G) • EGFR L858R (SignalChem, E10-122BG) • EGFR (d746-750) (SignalChem, E10-122JG) • EGFR L858R C797S (SignalChem, E10-122ZG) • EGFR (d746-750) C797S (SignalChem, E10-122TG)

[1] = molecular target: intracellular phosphorylation of EGFR (Tyr1068) in PC-9 cells (Homo sapiens, UniProt P00533, DEL746-750); assay: PC-9 pEGFR AlphaLISA assay; type: cell-based; settings: 4 hours incubation, read-out: Phos EGFR PC9 IC50
Description: PC-9/A431 pEGFR AlphaLISA Assays
Inhibitory effects of compounds were evaluated in cellular assays that measure level of intracellular phosphorylation of EGFR in PC-9 (ECACC, #90071810, Milipore/Sigma) and A431 cell lines (ATCC, CRL-1555) using AlphaLISA sureFire ultra p-EGFR (Tyr1068) assay kit (PerkinElmer, ALSU-PEGFR-A50K). PC-9 cells were seeded at 3.125×10^5 cells/ml in 40 μL phenol-free DMEM supplemented with 10% FBS per well of a 384 well plate (Corning, 3764), while A431 were seeded at […] in 40 μL in phenol-free DMEM with 0.5% FBS. Cells were allowed to adhere overnight at 37° C./5% CO2. On the next day, compounds were transferred at 4-fold, 10-point serial dilution from compound source plate to cell plates using liquid handler Echo550 and were incubated at 37° C./5% CO2 for 4 hours. A431 cells were stimulated prior harvesting for 10 min with EGF at final concentration of 30 ng/ml in the incubator. Medium was removed from the plates and cells were lysed with 10 μL of 1× AlphaLISA lysis buffer (supplemented with 1× protease/phosphatase inhibitor cocktail) followed by shaking at 600 rpm for 30 minutes at room temperature. Lysates were transferred to Optiplate (Apricot designs) and 5 ul of 1× acceptor bead mix (prepared just before use) was added to each well followed by incubation at room temperature for 1.5-2 h in dark. Then 5 μL of freshly-made donor bead mix is added to each well under subdued lighting or green filters, was mixed well on the shaker and the plate was sealed and left for an overnight incubation at room temperature in dark. On the next day, the plate was read the Envision using standard AlphaLisa settings. Percent of pEGFR inhibition was plotted against log concentration of compounds to generate IC50 values.

EGFR (d746-750) = molecular target: T2, EGFR (d746-750) (Homo sapiens, UniProt P00533, DEL746-750); assay: Biochemical EGFR inhibition assay (Caliper mobility shift), EGFR (d746-750); settings: biochemical Caliper mobility shift assay, EGFR Exon 19-del enzyme; read-out: Enz EGFR Exon 19-del IC50
T2 construct: purchased SignalChem E10-122JG
Description: as §1

Sequence of intracellular phosphorylation of EGFR (Tyr1068) in PC-9 cells (P00533 with tags, fused parts or gaps DEL746-750): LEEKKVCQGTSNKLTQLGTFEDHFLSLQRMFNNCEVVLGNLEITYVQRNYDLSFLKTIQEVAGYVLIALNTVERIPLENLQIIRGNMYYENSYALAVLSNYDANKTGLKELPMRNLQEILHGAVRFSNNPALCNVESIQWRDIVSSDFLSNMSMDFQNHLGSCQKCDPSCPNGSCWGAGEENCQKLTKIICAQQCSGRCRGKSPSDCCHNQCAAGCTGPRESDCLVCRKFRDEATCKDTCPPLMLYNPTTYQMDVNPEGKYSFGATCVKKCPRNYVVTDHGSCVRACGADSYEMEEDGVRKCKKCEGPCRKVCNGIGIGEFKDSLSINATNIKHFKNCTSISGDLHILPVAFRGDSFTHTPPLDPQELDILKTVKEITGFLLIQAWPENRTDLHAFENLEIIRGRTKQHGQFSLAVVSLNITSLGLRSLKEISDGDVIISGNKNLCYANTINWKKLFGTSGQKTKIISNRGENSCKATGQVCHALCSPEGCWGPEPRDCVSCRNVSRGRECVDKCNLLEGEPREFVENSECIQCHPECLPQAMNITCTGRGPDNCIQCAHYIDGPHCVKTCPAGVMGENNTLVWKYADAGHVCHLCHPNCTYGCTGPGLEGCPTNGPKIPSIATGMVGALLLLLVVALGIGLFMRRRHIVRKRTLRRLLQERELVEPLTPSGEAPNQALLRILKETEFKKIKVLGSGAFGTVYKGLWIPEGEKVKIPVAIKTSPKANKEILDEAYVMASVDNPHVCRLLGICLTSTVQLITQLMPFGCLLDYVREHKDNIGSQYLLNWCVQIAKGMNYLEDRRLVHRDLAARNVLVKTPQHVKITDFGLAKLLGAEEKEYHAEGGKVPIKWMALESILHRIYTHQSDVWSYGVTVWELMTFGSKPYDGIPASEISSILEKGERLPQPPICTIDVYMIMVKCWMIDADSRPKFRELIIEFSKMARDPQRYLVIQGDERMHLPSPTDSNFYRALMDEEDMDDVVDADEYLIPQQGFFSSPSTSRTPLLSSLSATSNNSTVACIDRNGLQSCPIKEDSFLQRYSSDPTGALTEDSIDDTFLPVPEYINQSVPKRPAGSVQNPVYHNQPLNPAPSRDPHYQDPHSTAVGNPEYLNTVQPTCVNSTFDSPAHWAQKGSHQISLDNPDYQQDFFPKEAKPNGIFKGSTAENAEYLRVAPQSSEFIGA
T1 sequence (P00533 25-1210 L858R): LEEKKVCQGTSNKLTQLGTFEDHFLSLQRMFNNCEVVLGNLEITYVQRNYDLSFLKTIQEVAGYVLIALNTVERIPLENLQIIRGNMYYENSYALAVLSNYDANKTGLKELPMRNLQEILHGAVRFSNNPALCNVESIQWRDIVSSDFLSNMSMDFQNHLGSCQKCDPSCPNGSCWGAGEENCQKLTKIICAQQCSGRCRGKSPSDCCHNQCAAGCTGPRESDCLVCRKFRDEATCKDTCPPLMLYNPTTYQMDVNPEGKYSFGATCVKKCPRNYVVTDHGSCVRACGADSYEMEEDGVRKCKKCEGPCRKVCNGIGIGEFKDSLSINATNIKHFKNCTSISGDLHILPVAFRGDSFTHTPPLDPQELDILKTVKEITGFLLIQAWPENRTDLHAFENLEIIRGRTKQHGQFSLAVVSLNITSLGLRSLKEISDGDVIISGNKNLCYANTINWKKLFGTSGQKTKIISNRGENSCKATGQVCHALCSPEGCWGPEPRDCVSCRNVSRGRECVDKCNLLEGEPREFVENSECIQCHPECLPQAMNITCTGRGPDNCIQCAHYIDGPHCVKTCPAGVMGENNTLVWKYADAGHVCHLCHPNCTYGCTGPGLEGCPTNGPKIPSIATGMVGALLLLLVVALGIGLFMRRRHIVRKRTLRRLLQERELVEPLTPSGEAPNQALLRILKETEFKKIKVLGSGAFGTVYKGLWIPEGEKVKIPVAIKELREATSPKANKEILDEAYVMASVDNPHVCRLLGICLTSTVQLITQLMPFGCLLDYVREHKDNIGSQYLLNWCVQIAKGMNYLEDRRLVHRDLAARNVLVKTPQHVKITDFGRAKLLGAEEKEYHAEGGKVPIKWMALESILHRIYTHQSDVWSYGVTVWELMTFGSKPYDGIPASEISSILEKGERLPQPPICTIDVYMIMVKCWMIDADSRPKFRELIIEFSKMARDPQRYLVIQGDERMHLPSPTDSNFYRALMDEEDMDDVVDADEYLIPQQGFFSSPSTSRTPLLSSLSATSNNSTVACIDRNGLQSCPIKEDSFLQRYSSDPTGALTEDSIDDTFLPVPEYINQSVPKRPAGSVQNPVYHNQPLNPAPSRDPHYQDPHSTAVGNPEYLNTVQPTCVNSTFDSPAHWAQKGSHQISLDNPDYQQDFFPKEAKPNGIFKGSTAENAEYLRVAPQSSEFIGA
T2 sequence (P00533 with tags, fused parts or gaps DEL746-750 limits assumed): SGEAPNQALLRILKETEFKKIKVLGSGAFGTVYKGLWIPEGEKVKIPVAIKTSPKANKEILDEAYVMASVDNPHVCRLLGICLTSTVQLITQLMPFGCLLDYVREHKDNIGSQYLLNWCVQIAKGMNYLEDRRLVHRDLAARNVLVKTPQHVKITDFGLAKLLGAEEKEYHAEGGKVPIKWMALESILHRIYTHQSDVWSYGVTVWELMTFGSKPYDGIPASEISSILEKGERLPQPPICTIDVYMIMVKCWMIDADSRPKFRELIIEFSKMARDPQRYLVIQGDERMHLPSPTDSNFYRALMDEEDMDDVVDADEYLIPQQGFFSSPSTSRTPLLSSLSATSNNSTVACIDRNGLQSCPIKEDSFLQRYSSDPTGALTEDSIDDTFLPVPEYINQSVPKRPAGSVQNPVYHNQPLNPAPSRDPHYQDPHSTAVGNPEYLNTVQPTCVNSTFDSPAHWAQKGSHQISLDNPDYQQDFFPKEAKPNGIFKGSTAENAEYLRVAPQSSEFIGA

Row | Structure (SMILES) | IC50 (EGFR L858R) [nM] | IC50 [1] [nM] | IC50 (EGFR (d746-750)) [nM]
1 | COc1nn(C)cc1-c1cc(O[C@@H]2COC[C@H]2F)c2c(Nc3ccc4ncsc4c3)ncnc2c1 (racemic) [Example 8, trans-N-(5-((-4-fluorotetrahydrofuran-3-yl)oxy)-7-(3-methoxy-1-methyl-1H-pyrazol-4-yl)quinazolin-4-yl)benzo[d]thiazol-6-amine] | 10.1 to 50 | 10.1 to 50 | ≤ 10
2 | C[C@@H]1OC[C@@H]1Oc1cc(-c2cnn(C)c2)cc2ncnc(Nc3ccc4ncsc4c3)c12 (racemic) [Example 9, cis-N-(7-(1-methyl-1H-pyrazol-4-yl)-5-((-2-methyloxetan-3-yl)oxy)quinazolin-4-yl)benzo[d]thiazol-6-amine] | ≤ 10 | 10.1 to 50 | ≤ 10
3 | C[C@@H]1OC[C@H]1Oc1cc(-c2cnn(C)c2)cc2ncnc(Nc3ccc4ncsc4c3)c12 (racemic) [Example 10, trans-N-(7-(1-methyl-1H-pyrazol-4-yl)-5-(((2S,3S)-2-methyloxetan-3-yl)oxy)quinazolin-4-yl)benzo[d]thiazol-6-amine] | ≤ 10 | 10.1 to 50 | ≤ 10
4 | C[C@H]1COCC[C@H]1Oc1cc(-c2cnn(C)c2)cc2ncnc(Nc3ccc4ncsc4c3)c12 (racemic) [Example 25, cis-racemic N-(7-(1-methyl-1H-pyrazol-4-yl)-5-(((3S,4R)-3-methyltetrahydro-2H-pyran-4-yl)oxy)quinazolin-4-yl)benzo[d]thiazol-6-amine] | ≤ 10 | 10.1 to 50 | ≤ 10
5 | C[C@H]1COCC[C@@H]1Oc1cc(-c2cnn(C)c2)cc2ncnc(Nc3ccc4ncsc4c3)c12 (racemic) [Example 26, trans-racemic N-(7-(1-methyl-1H-pyrazol-4-yl)-5-(((3S,4S)-3-methyltetrahydro-2H-pyran-4-yl)oxy)quinazolin-4-yl)benzo[d]thiazol-6-amine] | ≤ 10 | ≤ 10 | ≤ 10
6 | CC(Oc1cc(-c2cnn(C)c2)cc2ncnc(Nc3ccc4ncsc4c3)c12)C(F)F (racemic) [Example 51, (rac)-N-(5-((1,1-difluoropropan-2-yl)oxy)-7-(1-methyl-1H-pyrazol-4-yl)quinazolin-4-yl)benzo[d]thiazol-6-amine] | ≤ 10 | ≤ 10 | ≤ 10
7 | CCN1CCC(Oc2cc(-c3cnn(C)c3)cc3ncnc(Nc4ccc5ncsc5c4)c23)C1=O (racemic) [Example 58, (rac)-3-((4-(benzo[d]thiazol-6-ylamino)-7-(1-methyl-1H-pyrazol-4-yl)quinazolin-5-yl)oxy)-1-ethylpyrrolidin-2-one] | ≤ 10 | ≤ 10 | ≤ 10
8 | COc1cc2ncnc(Nc3ccc4ncsc4c3)c2cc1-c1cnn([C@@H]2CCNC[C@@H]2F)c1 (racemic) [Example 164, cis-N-(6-(1-((3R,4S)-3-fluoropiperidin-4-yl)-1H-pyrazol-4-yl)-7-methoxyquinazolin-4-yl)benzo[d]thiazol-6-amine] | ≤ 10 | 10.1 to 50 | ≤ 10
9 | COc1cc2ncnc(Nc3ccc4ncsc4c3)c2cc1-c1cnn([C@@H]2CCN(C)C[C@@H]2F)c1 (racemic) [Example 165, cis-N-(6-(1-((3R,4S)-3-fluoro-1-methylpiperidin-4-yl)-1H-pyrazol-4-yl)-7-methoxyquinazolin-4-yl)benzo[d]thiazol-6-amine] | ≤ 10 | ≤ 10 | ≤ 10
10 | COc1cc2ncnc(Nc3ccc4ncsc4c3)c2cc1-c1cnn([C@H]2CCNC[C@@H]2F)c1 (racemic) [Example 168, trans-N-(6-(1-((3S,4S)-3-fluoropiperidin-4-yl)-1H-pyrazol-4-yl)-7-methoxyquinazolin-4-yl)benzo[d]thiazol-6-amine] | ≤ 10 | 10.1 to 50 | ≤ 10
11 | COc1cc2ncnc(Nc3ccc4ncsc4c3)c2cc1-c1cnn([C@H]2CCN(C)C[C@@H]2F)c1 (racemic) [Example 169, trans-N-(6-(1-((3S,4S)-3-fluoro-1-methylpiperidin-4-yl)-1H-pyrazol-4-yl)-7-methoxyquinazolin-4-yl)benzo[d]thiazol-6-amine] | ≤ 10 | 10.1 to 50 | ≤ 10
12 | COc1cc(-c2cc(OC3CCOCC3)c3c(Nc4ccc5ncsc5c4)ncnc3c2)n(C)n1 [Example 256, N-(7-(3-methoxy-1-methyl-1H-pyrazol-5-yl)-5-((tetrahydro-2H-pyran-4-yl)oxy)quinazolin-4-yl)benzo[d]thiazol-6-amine] | > 50.1 | – | > 50.1
13 | COc1cc2ncnc(Nc3ccc4ncsc4c3)c2cc1N[C@@H]1CCN(C)C[C@H]1F [Example 301, N4-(benzo[d]thiazol-6-yl)-N6-((3R,4R)-3-fluoro-1-methylpiperidin-4-yl)-7-methoxyquinazoline-4,6-diamine] | ≤ 10 | – | ≤ 10
14 | CN1CCN(C(=O)Oc2cc(OC3CCOCC3)c3c(Nc4ccc5ncsc5c4)ncnc3c2)CC1 [Example A11, 4-[(1,3-benzothiazol-6-yl)amino]-5-(oxan-4-yloxy)quinazolin-7-yl 4-methylpiperazine-1-carboxylate] | > 50.1 | – | 10.1 to 50
15 | CN1CCN(c2cc(OC3CCOCC3)c3c(Nc4ccc5ncsc5c4)ncnc3c2)CC1(C)C [Example A58, N-(5-((tetrahydro-2H-pyran-4-yl)oxy)-7-(3,3,4-trimethylpiperazin-1-yl)quinazolin-4-yl)benzo[d]thiazol-6-amine] | > 50.1 | – | > 50.1

Second part, the compound after the results:

Row | IC50 (EGFR L858R) [nM] | IC50 [1] [nM] | IC50 (EGFR (d746-750)) [nM] | Structure (SMILES)
16 | ≤ 10 | ≤ 10 | ≤ 10 | CC(C)N1CCC(Oc2cc(-c3cnn(C)c3)cc3ncnc(Nc4ccc5ncsc5c4)c23)C1=O (racemic) [Example 62, (rac)-3-((4-(benzo[d]thiazol-6-ylamino)-7-(1-methyl-1H-pyrazol-4-yl)quinazolin-5-yl)oxy)-1-isopropylpyrrolidin-2-one]
17 | ≤ 10 | ≤ 10 | ≤ 10 | Cn1cc(-c2cc(O[C@@H]3CNC[C@H](F)C3)c3c(Nc4ccc5ncsc5c4)ncnc3c2)cn1 (racemic) [Example 329, cis-N-(5-(((3S,5R)-5-fluoropiperidin-3-yl)oxy)-7-(1-methyl-1H-pyrazol-4-yl)quinazolin-4-yl)benzo[d]thiazol-6-amine]
18 | 10.1 to 50 | – | ≤ 10 | C[C@H]1[C@H](Oc2cc(-c3cnn(C)c3)cc3ncnc(Nc4ccc5ncsc5c4)c23)CN1C (single isomer, unassigned) [Example 322]
19 | 10.1 to 50 | 10.1 to 50 | – | CN1CC[C@@H](Oc2cc(-c3cnn(C)c3)cc3ncnc(Nc4ccc5ncsc5c4F)c23)C1 [Example 4, (R)-7-fluoro-N-(7-(1-methyl-1H-pyrazol-4-yl)-5-((1-methylpyrrolidin-3-yl)oxy)quinazolin-4-yl)benzo[d]thiazol-6-amine]
20 | > 50.1 | – | 10.1 to 50 | COc1nn(C2CCN(C)CC2)cc1-c1cc(F)c2c(Nc3ccc4ncsc4c3F)ncnc2c1 [Example 226, 7-fluoro-N-(5-fluoro-7-(3-methoxy-1-(1-methylpiperidin-4-yl)-1H-pyrazol-4-yl)quinazolin-4-yl)benzo[d]thiazol-6-amine]
21 | ≤ 10 | ≤ 10 | – | COc1cc2c(Nc3ccc4ncsc4c3F)ncnc2cc1-c1cnn(C)c1 [Example 265, 7-fluoro-N-(6-methoxy-7-(1-methyl-1H-pyrazol-4-yl)quinazolin-4-yl)benzo[d]thiazol-6-amine]
